Measured values as given in the supplement of paper PMC11451515.

Tested on: SEM cells
Assay: cell viability relative to DMSO control; higher = less cytotoxic
Conditions: 48 h
Method in brief: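 Three leukemia lines were tested: NOMO1 and SEM at 500 cells/well and P12-Ichikawa at 1000 cells/well. Each was adapted for at least four passages in each medium and seeded in 5 μl in 1536-well plates, and library compounds in DMSO were pin-dosed from 47 μM to 0.79 nM in 11 threefold steps. After 48 h at 37°C, CellTiter-Glo One luminescence was read. Viability is a percentage relative to DMSO wells on each plate, with cell-free wells as background.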

[1] = HPLM + 10% dialyzed FBS, 0.000781 µM
[2] = HPLM + 10% dialyzed FBS, 0.00234 µM
[3] = HPLM + 10% dialyzed FBS, 0.00702 µM
[4] = HPLM + 10% dialyzed FBS, 0.0211 µM
[5] = HPLM + 10% dialyzed FBS, 0.0632 µM
[6] = HPLM + 10% dialyzed FBS, 0.19 µM
[7] = HPLM + 10% dialyzed FBS, 0.569 µM
[8] = HPLM + 10% dialyzed FBS, 1.71 µM
[9] = HPLM + 10% dialyzed FBS, 5.12 µM
[10] = HPLM + 10% dialyzed FBS, 15.4 µM
[11] = HPLM + 10% dialyzed FBS, 46.1 µM
[12] = RPMI 5 mM glucose + 10% FBS, 0.000781 µM
[13] = RPMI 5 mM glucose + 10% FBS, 0.00234 µM
[14] = RPMI 5 mM glucose + 10% FBS, 0.00702 µM
[15] = RPMI 5 mM glucose + 10% FBS, 0.0211 µM
[16] = RPMI 5 mM glucose + 10% FBS, 0.0632 µM
[17] = RPMI 5 mM glucose + 10% FBS, 0.19 µM
[18] = RPMI 5 mM glucose + 10% FBS, 0.569 µM
[19] = RPMI 5 mM glucose + 10% FBS, 1.71 µM
[20] = RPMI 5 mM glucose + 10% FBS, 5.12 µM
[21] = RPMI 5 mM glucose + 10% FBS, 15.4 µM
[22] = RPMI 5 mM glucose + 10% FBS, 46.1 µM
[23] = RPMI 5 mM glucose + 10% dialyzed FBS, 0.000781 µM
[24] = RPMI 5 mM glucose + 10% dialyzed FBS, 0.00234 µM
[25] = RPMI 5 mM glucose + 10% dialyzed FBS, 0.00702 µM
[26] = RPMI 5 mM glucose + 10% dialyzed FBS, 0.0211 µM
[27] = RPMI 5 mM glucose + 10% dialyzed FBS, 0.0632 µM
[28] = RPMI 5 mM glucose + 10% dialyzed FBS, 0.19 µM
[29] = RPMI 5 mM glucose + 10% dialyzed FBS, 0.569 µM
[30] = RPMI 5 mM glucose + 10% dialyzed FBS, 1.71 µM
[31] = RPMI 5 mM glucose + 10% dialyzed FBS, 5.12 µM
[32] = RPMI 5 mM glucose + 10% dialyzed FBS, 15.4 µM
[33] = RPMI 5 mM glucose + 10% dialyzed FBS, 46.1 µM

Row | Structure (SMILES) | cell viability [1] [%] | cell viability [2] [%] | cell viability [3] [%] | cell viability [4] [%] | cell viability [5] [%] | cell viability [6] [%] | cell viability [7] [%] | cell viability [8] [%] | cell viability [9] [%] | cell viability [10] [%] | cell viability [11] [%] | cell viability [12] [%] | cell viability [13] [%] | cell viability [14] [%] | cell viability [15] [%] | cell viability [16] [%] | cell viability [17] [%] | cell viability [18] [%] | cell viability [19] [%] | cell viability [20] [%] | cell viability [21] [%] | cell viability [22] [%] | cell viability [23] [%] | cell viability [24] [%] | cell viability [25] [%] | cell viability [26] [%] | cell viability [27] [%] | cell viability [28] [%] | cell viability [29] [%] | cell viability [30] [%] | cell viability [31] [%] | cell viability [32] [%] | cell viability [33] [%]
1 | C=CC(=O)Nc1cc2c(Nc3ccc(F)c(Cl)c3)ncnc2cc1OCCCN1CCOCC1 | 112 | 107 | 112 | 128 | 110 | 124 | 114 | 90.3 | 55 | 39.2 | 26.7 | 87.7 | 81.5 | 85.3 | 84 | 73.1 | 78.6 | 80.2 | 68.6 | 41.7 | 24.2 | 42.9 | 119 | 114 | 95.4 | 127 | 112 | 110 | 108 | 89 | 56.3 | 29.1 | 58.8
2 | CC12CC3CC(C)(C1)CC(N)(C3)C2 | 89.4 | 107 | 93.2 | 105 | 96.7 | 99.4 | 127 | 126 | 103 | 114 | 105 | 106 | 94.4 | 105 | 109 | 110 | 106 | 122 | 114 | 133 | 123 | 131 | 84.3 | 86.8 | 88.6 | 116 | 102 | 104 | 110 | 103 | 101 | 95.5 | 104
3 | C[C@@H](CN1CC(=O)NC(=O)C1)N1CC(=O)NC(=O)C1 | 86.3 | 103 | 102 | 96.6 | 70.9 | 32.1 | 17.2 | 12.8 | 10.5 | 5.86 | 4.47 | 93.6 | 99.3 | 98.2 | 67.1 | 72.1 | 17.1 | 9.93 | 8.96 | 7.24 | 4.49 | 3.85 | 75 | 101 | 92.6 | 82.5 | 61.1 | 18.6 | 8.07 | 8.83 | 7.97 | 4.17 | 3.08
4 | COC1=CC=C(C(=C1)OC(C)C)C/2=N/[C@@H]([C@@H](N2C(=O)N3CCNC(=O)C3)C4=CC=C(Cl)C=C4)C5=CC=C(Cl)C=C5 | 92.4 | 110 | 112 | 106 | 87.1 | 56.5 | 42.5 | 33.1 | 29.2 | 16.1 | 5.42 | 100 | 125 | 99.9 | 105 | 60.6 | 55.6 | 46.5 | 34.5 | 23.6 | 6.03 | 1.48 | 101 | 106 | 101 | 83.5 | 79.8 | 45.1 | 41.1 | 27.8 | 20.5 | 12.3 | 3.12
5 | CCCNC(=O)Nc1ccc(Oc2ncnc3cc(OC)c(OC)cc23)cc1Cl | 101 | 93.5 | 108 | 104 | 102 | 101 | 89.8 | 98.1 | 81 | 80.4 | 47.6 | 118 | 125 | 125 | 146 | 117 | 104 | 103 | 98 | 88.2 | 92.1 | 57.7 | 94 | 109 | 104 | 113 | 90.7 | 98.5 | 92.8 | 78.9 | 73.3 | 75.5 | 41.7
6 | NC(=O)c1ccc(N(C(N)=O)c2c(F)cccc2F)nc1-c1ccc(F)cc1F | 85.2 | 81.2 | 88.2 | 79.5 | 89.5 | 94 | 106 | 99.7 | 88.5 | 51.7 | 77.5 | 116 | 88.8 | 80.1 | 97.4 | 119 | 95 | 89 | 104 | 102 | 52.3 | 94.9 | 87.6 | 86.7 | 89.4 | 94.7 | 93.2 | 94.9 | 88.3 | 100 | 92.1 | 41.1 | 66.8
7 | O=C(O)C(=O)c1cn(Cc2ccccc2)c2ccc(-c3ccc(OC(F)(F)F)cc3)cc12 | 102 | 126 | 116 | 117 | 107 | 108 | 109 | 110 | 122 | 46.2 | 97.5 | 119 | 106 | 104 | 103 | 98.7 | 102 | 95.2 | 108 | 97.3 | 45.1 | 88.1 | 110 | 94.6 | 102 | 99 | 98.6 | 84.2 | 116 | 89.1 | 101 | 30.4 | 84.2
8 | CC(C)(O)CC(=O)NCCn1ccc2ncnc(Nc3ccc(Oc4cccc(C(F)(F)F)c4)c(Cl)c3)c21 | 106 | 110 | 102 | 103 | 112 | 105 | 103 | 96.5 | 94.6 | 71.6 | 32.9 |  |  |  |  |  |  |  |  |  |  |  | 105 | 88 | 102 | 103 | 109 | 107 | 100 | 101 | 90.4 | 58.5 | 23.6
9 | N[C@@H]1CONC1=O | 99.7 | 100 | 103 | 97.7 | 104 | 109 | 107 | 98.5 | 104 | 103 | 118 | 91.3 | 96 | 84.7 | 93.5 | 86 | 93.3 | 108 | 94.9 | 89.6 | 92.2 | 92.4 | 91.2 | 81.3 | 89.7 | 89.2 | 97.8 | 87.4 | 101 | 93.7 | 81.6 | 101 | 80.6
10 | CCCCOc1c(C(=O)c2c(F)cc(C)cc2F)cnc2[nH]ncc12 | 107 | 111 | 104 | 110 | 115 | 108 | 108 | 92 | 70.4 | 64.1 | 30.9 | 104 | 105 | 103 | 113 | 114 | 118 | 114 | 89.6 | 60.6 | 71.8 | 35.6 | 93.2 | 96.5 | 96.9 | 86.8 | 107 | 106 | 104 | 84.4 | 71.6 | 56.8 | 25.3
11 | O=P(O)(O)C(O)(Cn1ccnc1)P(=O)(O)O | 73.9 | 94 | 19.2 | 101 | 106 | 101 | 107 | 106 | 104 | 109 | 99.1 | 95.8 | 102 | 10.2 | 110 | 120 | 116 | 123 | 110 | 123 | 120 | 114 | 100 | 89.7 | 22.5 | 92.7 | 114 | 104 | 102 | 117 | 120 | 116 | 121
12 | COC(=O)c1ccc2c(c1)NC(=O)/C2=C(\Nc1ccc(N(C)C(=O)CN2CCN(C)CC2)cc1)c1ccccc1 | 76.7 | 79.4 | 60.3 | 30.1 | 48.9 | 50.9 | 46.4 | 38.3 | 37.9 | 30.5 | 23.8 | 96.1 | 92.7 | 84.2 | 31.7 | 68 | 60 | 57.5 | 43.8 | 41.3 | 36.7 | 24.5 | 82.9 | 83.2 | 60.1 | 30.8 | 49.2 | 44.6 | 38.7 | 35.9 | 30.2 | 29.8 | 25.4
13 | Cc1ccccc1C(=O)Nc1ccc(C(=O)N2CCCC(O)c3cc(Cl)ccc32)c(C)c1 (configuration not stated) | 109 | 97.2 | 97.9 | 112 | 113 | 117 | 131 | 42.2 | 108 | 127 | 121 | 122 | 109 | 123 | 136 | 141 | 127 | 137 | 32.9 | 140 | 151 | 146 | 103 | 116 | 112 | 140 | 132 | 136 | 149 | 56.3 | 146 | 140 | 133
14 | Cc1coc2c1C(=O)C(=O)c1c-2ccc2c1CCCC2(C)C | 112 | 98.6 | 104 | 102 | 96.8 | 97 | 97.1 | 102 | 99.6 | 85.2 | 87.4 | 112 | 108 | 107 | 109 | 101 | 99.6 | 104 | 95.8 | 97.1 | 79.9 | 80.7 | 96.7 | 99.7 | 102 | 97.4 | 90.3 | 88 | 82.6 | 76 | 75.1 | 78.4 | 84.3
15 | CCCCOCCOc1nc(-c2ccc(C(=O)O)c(F)c2)sc1C | 124 | 126 | 120 | 125 | 123 | 124 | 108 | 111 | 115 | 109 | 119 | 101 | 111 | 113 | 118 | 104 | 109 | 107 | 102 | 102 | 84.5 | 106 | 105 | 113 | 108 | 122 | 121 | 111 | 116 | 120 | 97.4 | 104 | 121
16 | COc1ccc(C(=O)c2c(C)n(CCN3CCOCC3)c3cc(I)ccc23)cc1 | 85.3 | 102 | 111 | 109 | 105 | 110 | 103 | 93.8 | 98.5 | 91.7 | 66.4 | 88 | 108 | 104 | 93.6 | 106 | 111 | 107 | 111 | 96.4 | 95.1 | 52 | 102 | 93.5 | 117 | 115 | 115 | 123 | 132 | 129 | 107 | 99.1 | 60.3
